In assay [1] the test system is Panel NCI-60 (60 carcinoma cell lines). Description: Cytotoxicity against human Panel NCI-60 (60 carcinoma cell lines). The assay is classed as functional, cell-based.
Another assay relates to HeLa. Description: Cytotoxicity against human HeLa cells measured after 48 hrs by MTT assay. In kind it is functional, cell-based. Background: Tetrazolium assays rely on reduction of a dye to a coloured formazan, in cell work by metabolically active cells.
A further assay deals with SGC-7901. The assay can be described thus: Cytotoxicity against human SGC-7901 cells measured after 48 hrs by MTT assay. The assay is classed as functional, cell-based. Conditions: SGC-7901, 48 h.
For another assay, the system named is SMMC-7721. The assay can be described thus: Cytotoxicity against human SMMC-7721 cells measured after 48 hrs by MTT assay. The assay is classed as functional, cell-based. Particulars: SMMC-7721, 48 h.
Assay [2] deals with A549. The assay can be described thus: Cytotoxicity against human A549 cells measured after 48 hrs by MTT assay. The assay is classed as functional, cell-based. Particulars: A549, 48 h.
In the next assay the target is T1, DNA topoisomerase 1 (Homo sapiens, UniProt P11387).
T1 sequence (P11387 whole entry): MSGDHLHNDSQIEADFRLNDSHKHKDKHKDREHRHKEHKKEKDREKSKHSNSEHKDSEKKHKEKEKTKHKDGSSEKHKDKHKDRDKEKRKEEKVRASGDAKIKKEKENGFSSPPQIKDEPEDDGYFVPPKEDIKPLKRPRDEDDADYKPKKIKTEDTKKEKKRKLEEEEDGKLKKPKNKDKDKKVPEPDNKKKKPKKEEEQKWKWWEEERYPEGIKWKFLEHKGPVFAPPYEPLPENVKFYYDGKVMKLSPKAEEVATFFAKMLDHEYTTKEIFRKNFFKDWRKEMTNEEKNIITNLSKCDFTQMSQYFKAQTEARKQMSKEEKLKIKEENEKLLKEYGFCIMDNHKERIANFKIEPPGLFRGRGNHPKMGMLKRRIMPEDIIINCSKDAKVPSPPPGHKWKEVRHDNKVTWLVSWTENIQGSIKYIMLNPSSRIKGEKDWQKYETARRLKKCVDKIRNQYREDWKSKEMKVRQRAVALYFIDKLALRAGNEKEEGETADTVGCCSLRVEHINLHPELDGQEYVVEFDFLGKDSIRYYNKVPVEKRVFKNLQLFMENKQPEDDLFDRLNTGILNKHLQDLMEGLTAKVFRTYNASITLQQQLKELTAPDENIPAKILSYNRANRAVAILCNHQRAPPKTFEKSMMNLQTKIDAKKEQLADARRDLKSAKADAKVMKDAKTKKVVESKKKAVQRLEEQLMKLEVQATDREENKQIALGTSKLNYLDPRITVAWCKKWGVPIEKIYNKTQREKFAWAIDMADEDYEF
The assay can be described thus: Inhibition of Topoisomerase 1 (unknown origin).

The target in assay [3] is T2, Kinesin-like protein KIF11 (Homo sapiens, UniProt P52732).
T2 sequence (P52732 whole entry): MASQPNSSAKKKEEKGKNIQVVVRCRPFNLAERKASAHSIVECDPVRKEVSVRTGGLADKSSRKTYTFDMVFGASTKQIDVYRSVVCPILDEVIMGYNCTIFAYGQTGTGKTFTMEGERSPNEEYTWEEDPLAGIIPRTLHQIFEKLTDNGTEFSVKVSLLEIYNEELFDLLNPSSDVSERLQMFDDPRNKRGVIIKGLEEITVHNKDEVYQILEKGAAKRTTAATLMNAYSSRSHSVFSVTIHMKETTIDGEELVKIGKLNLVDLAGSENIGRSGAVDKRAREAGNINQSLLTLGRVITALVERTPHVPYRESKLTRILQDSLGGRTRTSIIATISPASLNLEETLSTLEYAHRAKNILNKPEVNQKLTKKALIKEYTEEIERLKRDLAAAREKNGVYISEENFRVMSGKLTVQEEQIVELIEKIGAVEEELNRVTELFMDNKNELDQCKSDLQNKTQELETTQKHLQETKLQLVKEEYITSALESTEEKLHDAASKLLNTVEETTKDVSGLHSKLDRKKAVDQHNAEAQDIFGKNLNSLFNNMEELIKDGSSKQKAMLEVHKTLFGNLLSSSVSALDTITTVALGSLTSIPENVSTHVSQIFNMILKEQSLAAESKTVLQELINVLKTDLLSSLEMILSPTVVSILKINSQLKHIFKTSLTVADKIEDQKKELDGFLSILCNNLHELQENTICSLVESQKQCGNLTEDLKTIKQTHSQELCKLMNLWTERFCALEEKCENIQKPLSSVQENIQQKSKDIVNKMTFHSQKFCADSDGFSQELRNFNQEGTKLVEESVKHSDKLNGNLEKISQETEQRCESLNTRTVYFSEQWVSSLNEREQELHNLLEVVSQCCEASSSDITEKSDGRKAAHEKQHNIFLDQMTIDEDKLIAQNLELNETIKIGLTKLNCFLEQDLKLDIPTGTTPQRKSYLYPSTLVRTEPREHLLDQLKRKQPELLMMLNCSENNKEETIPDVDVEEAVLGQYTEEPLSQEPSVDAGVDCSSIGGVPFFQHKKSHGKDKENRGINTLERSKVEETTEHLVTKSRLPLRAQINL
Description: Inhibition of KSP (unknown origin).

Assay [4] in a line: Cytotoxicity against human Lu1 cells. The assay is classed as functional, cell-based.
A further assay relates to LNCaP. The assay can be described thus: Cytotoxicity against human LNCaP cells. In kind it is functional, cell-based.
A further assay relates to HUVEC. Description: Cytotoxicity against human HUVEC cells. In kind it is functional, cell-based.
The test system of a further assay is TERT-RPE1. The assay can be described thus: Cytotoxicity against human TERT-RPE1 cells. Particulars: RPE-1. The assay is classed as functional, cell-based.
The subject of a further assay is Col2. The assay can be described thus: Cytotoxicity against human Col2 cells. In kind it is functional, cell-based.
In a further assay the test system is HT-1080. Description: Cytotoxicity against human HT-1080 cells. In kind it is functional, cell-based.
A further assay deals with Hep 3B2. Description: Cytotoxicity against human Hep3B cells after 48 hrs incubation by SRB assay. In kind it is functional, cell-based.
The next assay deals with HepG2. Description: Cytotoxicity against human HepG2 cells after 48 hrs incubation by SRB assay. In kind it is functional, cell-based. Conditions: HepG2, 48 h. (In SRB staining, fixed cells bind dye roughly in proportion to their protein.)
The test system of another assay is KB. The assay can be described thus: Cytotoxicity against human KB cells assessed as inhibition of growth measured after 1 day by hemacytometer. The assay is classed as functional. Particulars: 24 h, read-out: ED50 (the source's name).
Assay [5] relates to A549. The assay can be described thus: Cytotoxicity against human A549 cells. The assay is classed as functional, cell-based.
For another assay, the system named is MCF7. The assay can be described thus: Cytotoxicity against human MCF7 cells. In kind it is functional, cell-based.
For the next assay, the system named is OVCAR-3. The assay can be described thus: Cytotoxicity against human OVCAR-3 cells. In kind it is functional, cell-based.
Another assay concerns NCI-H1299. Description: Cytotoxicity against human NCI-H1299 cells. The assay is classed as functional, cell-based.
The next assay deals with HCT-116. The assay can be described thus: Cytotoxicity against human HCT-116 cells. In kind it is functional, cell-based.

≈ marks a conversion by molar mass, not a printed value.

Broadly, the IC50 is the concentration needed to halve the response being measured. A high value points to lower potency. Take `COc1ccc(-c2nc(-c3nc4ccc(F)cc4[nH]3)cc3c2[nH]c2ccccc23)cc1`: half-maximal inhibition in [1] (IC50) required 0.3 µM.

For the compound `O=C(OCCCCCOC(=O)c1cc2c3ccccc3n(Cc3ccccc3F)c2cn1)c1cc2c3ccccc3n(Cc3ccccc3F)c2cn1`, the IC50 in the assay with HeLa, in the assay with SGC-7901, with SMMC-7721 and in the assay on A549 [2] was 5.61 µM each time.

With `Cc1ccc(-n2c(-c3cc4c([nH]c5ccccc54)c(-c4cccc(O)c4)n3)n[nH]c2=S)cc1`, the IC50 against DNA topoisomerase 1 was determined as 2.5 µM; in assay [3], 8.91 µM.

Consider `O=C(NNC(=S)Nc1ccc(Br)cc1)c1cc2c([nH]c3ccccc32)c(-c2cccc(O)c2)n1`, for which the values for the IC50 (against DNA topoisomerase 1; in [3]) were 5.8 µM and 13.4 µM, respectively.

`Cc1ccccc1Cn1c2ccccc2c2cc(C(=O)OCCCCCOC(=O)c3cc4c5ccccc5n(Cc5ccccc5C)c4cn3)ncc21`: the IC50 in the assay on HeLa, in the assay on SGC-7901, in the assay on SMMC-7721 and with A549 [2] was 6.93 µM in each case.

For the compound `COc1cc2c3ccccc3n3c(=O)ccc(n1)c23`, the IC50 (in [4]; in the assay with LNCaP; in the assay on HUVEC; in the assay on TERT-RPE1; in the assay on Col2) was 0.503 µM throughout.

For `COc1c(O)ccc2c1c1ccnc3ccc(=O)n2c31`, the IC50 in the assay on HT-1080 was 7.2 µM.

For `COc1cnc(C(=O)[C@@H](Cc2nccc3c2[nH]c2ccccc23)OC)c2[nH]c3ccccc3c12`, the IC50 in the assay with Hep 3B2 is above 50 µM; in the assay on HepG2, 33.9 µM.

With `CSc1nnc(-c2cc3c([nH]c4ccccc43)c(-c3cccc(O)c3)n2)o1`, the IC50 worked out at 7.8 µM against DNA topoisomerase 1 and 8.73 µM in assay [3].

With `COc1cccc2c1c1c(O)cnc3ccc(=O)n2c31`, the EC50 in the assay on KB stood at 2 µg/mL (≈ 7.51 µM).

For the compound `CNCC(O)c1ccc(O)c(C2(O)c3ccccc3-[n+]3ccc4c([nH]c5ccccc54)c32)c1` (stereo not drawn), the IC50 in the assay with A549 [5], with MCF7 and with OVCAR-3 was 27 µg/mL each time.

In the assay with HT-1080, `COc1ccc2c3ccnc4c(OC)cc(=O)n(c2c1)c43` returned a half-inhibitory concentration (IC50) of 5 µM. This counts as single-digit micromolar.

As to `COc1cnc2ccc(=O)n3c4cccc(O)c4c1c23`, the EC50 with KB came out at 2 µg/mL (≈ 7.51 µM).

In the case of `COc1cnc(C(=O)[C@H](Cc2nccc3c2[nH]c2ccccc23)OC)c2[nH]c3ccccc3c12`, the half-inhibitory concentration (IC50) worked out at 46.2 µM with Hep 3B2 and 27.5 µM with HepG2.

Turning to `COc1ccc(CCNC(=O)c2cc3c([nH]c4ccccc43)c(C(C)=O)n2)cc1` [MARINACARBOLINE A], the IC50 with A549 [5], in the assay with NCI-H1299 and in the assay with HCT-116 was 24.4 µM in each case.

`CC(=O)c1nc(C(=O)NCCc2c[nH]c3ccccc23)cc2c1[nH]c1ccccc12` [MARINACARBOLINE D]: the IC50 in the assay on A549 [5], in the assay on NCI-H1299 and in the assay with HCT-116 was 15 µM in each case.

Take `c1ccc2c(c1)[nH]c1cnccc12` [NORHARMANE]: the IC50 at DNA topoisomerase 1 was determined as 31 µM. This lies in the double-digit micromolar range.
